Earlier results as cited in patent US20220031739A1, “ANTI-VIRAL COMPOSITIONS AND METHODS OF USE THEREOF” (Eye Therapies LLC, priority 2020, published 2022).

Tested on: herpes simplex virus ("HSV")

## O=c1[nH]c(=O)n([C@H]2C[C@H](O)[C@@H](CO)O2)cc1C(F)(F)F [Trifluridine, trifluridine]
Likelihood especially high when used for long periods for deeper infections
  toxicity: causes toxicity of both virus and corneal cells
Superficial HSV infections
  time to treat superficial HSV infections from the start of treatment: ≤ 1 week
